The subject of the experiment is CEM cells HIV-1 protection, formazan growth assay. The experiment is described as follows: NCI AIDS Antiviral Assay. The settings on record: for IC50: measured here: growth of uninfected CEM cells. The gist of the method:
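Five concentrations of each compound were applied to infected and uninfected human CEM cells. Protection from HIV-1 was judged from growth measured with a soluble formazan assay.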

Each structure is given as a SMILES string. Where “and” joins values, the source holds several entries; their conditions need not be identical. Equal entries are not always repeated. Calls of active or inactive are those of the source.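 Rule for the calls: active = compounds giving half or more protection of infected cells from virus-caused growth loss, again on retest; inactive = the rest.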 Where a SMILES comes first, the peptide text is derived from it. [ ]: non-standard residue; d: D form. The star is where a group is joined. ξ: configuration not given here. NMeN = CN[C@@H](CC(N)=O)C(=O)O; NMeV = CN[C@H](C(=O)O)C(C)C; ξNMeV = CNC(C(=O)O)C(C)C; Boc = CC(C)(C)OC(=O)*; ξNMeA = CNC(C)C(=O)O

The term EC50 denotes the concentration giving half of the maximal effect. Broadly, the IC50 is the concentration that gives 50% inhibition. Higher therefore signals lower potency.

For the compound `CCCc1c(-c2ccc(OC)cc2)c(=O)oc2cc(O)ccc12`, the EC50 is above 200 µM and the IC50 came out at 53.7 µM. The corresponding values for `Nc1nc(N)c2ncn(C3C=CC(CO)CC3)c2n1` (stereo not given) are above 200 µM and above 200 µM. The corresponding values for `COc1ccc(N=Cc2cc(OC)c(OC)c(OC)c2)cc1` are above 33.1 µM and above 33.1 µM. On to `O=c1c2cc([N+](=O)[O-])ccc2[nH]n1Cc1ccccc1Cl`, for which the EC50 is above 200 µM and the IC50 is 41.7 µM. The corresponding values for `CC(C)(C)[Si](C)(C)OCCCCC1CC2(S(=O)(=O)C3=CC=C=C=C3)ON1CC2S(=O)(=O)c1ccccc1` (stereo not given) are above 45.7 µM and above 45.7 µM. The corresponding values for `CCOP(=O)(OCC)/C(C#N)=C/c1ncc[nH]1` are above 200 µM and above 200 µM. As to `Cc1cc(=O)n(-c2ccccc2)c(=S)n1-c1nc2ccccc2[nH]1`, the EC50 was above 107 µM and the IC50 was determined as 63.1 µM.

Consider `Cn1c(=O)c2[nH]c(=O)c(=O)[nH]c2n(C)c1=O`, for which the EC50 was above 200 µM and the IC50 is above 200 µM. In the case of `COC(=O)Cc1c2n(c3ccccc13)C(=O)N1c3ccccc3C(CC(=O)OC)C21` (stereo not given), the EC50 is above 200 µM and the IC50 is above 200 µM.

Regarding `Cc1cc(N(CCC#N)CCC#N)ccc1/C=C\C(=O)Nc1ccccc1`, the EC50 was above 692 µM and the IC50 is above 692 µM. Turning to `Cc1[nH]nc2c1NC(=O)OC(C)(C)C2`, the EC50 is above 479 µM and the IC50 was above 479 µM. Take `S=c1[nH]nc(Cn2c3ccc(Br)cc3c3nc4ccccc4nc32)o1`: the EC50 was above 200 µM and the IC50 turned out to be 49 µM. For the compound `COc1ccc2c(c1)OC[C@]1(C)c3cc(O)c(OCc4ccccc4)cc3O[C@H]21`, the result was inactive. As to `c1ccc(N=C2c3ccsc3C(=Nc3ccccc3)c3ccsc32)cc1`, the EC50 was above 200 µM and the IC50 came to 2.51 µM.

With `Cc1ccccc1N1C(=O)CC2(CCCC2)C1=O`, the EC50 was above 363 µM and the half-maximal inhibitory concentration (IC50) is 214 µM. For `Oc1ccc(-c2c3ccccc3c(-c3ccc(OCCBr)cc3)c3ccccc23)cc1` the same measures were above 100 µM and above 100 µM. Turning to `OCC(O)C(O)C(O)c1nn[nH]n1` (stereo not given), the result was inactive. For `C1SSCC2=C1CSSC2`, the EC50 is above 13.2 µM and the IC50 was above 13.2 µM. As for `Nc1n(CC(=O)c2ccccc2)nc2sc(-c3ccccc3)n[n+]12`, the EC50 is above 200 µM and the IC50 is 10.2 µM. The corresponding values for `O=C(CC(=O)n1nc(-c2ccccc2)c(N=Nc2ccccc2C(=O)O)c1-c1ccccc1)Nc1ccc(Cl)cc1` are above 200 µM and 77.6 µM. The corresponding values for `CN(C)CCN=C1Nc2ccccc2C(=O)N2CSCC12` (stereo not given) are above 200 µM and above 200 µM. For `Cc1ccc(SSc2ccc(C)c(Cl)c2)cc1Cl` the same measures were above 200 µM and above 200 µM. Take `CCOC(=O)c1c(-c2ccccc2)c(-c2ccccc2)cn1C`: the EC50 was above 200 µM and the IC50 is 46.8 µM. On to `Nc1ccc(-c2nc3ccccc3s2)cc1S(=O)(=O)O`, for which the EC50 was above 200 µM and the IC50 was 60.3 µM. For `CCN(CC)C(=S)SS(=O)(=O)c1ccccc1[N+](=O)[O-]` the same measures were above 200 µM and 7.24 µM. The corresponding values for `NNC(=S)NN/C=C(\C=Nc1ccccc1)[N+](=O)[O-]` are above 178 µM and 155 µM.

Turning to `Cc1cc(N=Nc2ccc(C(=O)Nc3ccc4cc(S(=O)(=O)O)ccc4c3)cc2)c(N)c(N=Nc2ccc(N=Nc3ccc(O)c(C(=O)O)c3)cc2)c1N`, the EC50 was 14.8 µM and the IC50 was above 100 µM. The corresponding values for `O=c1cc(-c2ccccc2)[nH]c(=S)[nH]1` are above 200 µM and above 200 µM. The corresponding values for `CCC(C)N1CN(c2ccccc2)C2(CCN(CCCSc3ccc(F)cc3)CC2)C1=O` (stereo not given) are above 200 µM and 4.17 µM. `C=C(CS(=O)(=O)c1ccccc1)[P+](c1ccccc1)(c1ccccc1)c1ccccc1`: the result was inactive. Consider `Cc1nc(N)nc(N)c1N1CCN(c2ccc(C(=O)NC(CCC(=O)O)C(=O)O)cc2)CC1` (stereo not given), for which the EC50 was above 200 µM and the IC50 was found to be 0.0631 µM. Take `Fc1cccc(C2SCc3nc4ncccc4n32)c1` (stereo not given): the EC50 is above 132 µM and the IC50 is above 132 µM. For the compound `O=C1N=CN=C2C=CC(Cl)=C(I)C12` (stereo not given), the EC50 is above 85.1 µM and the IC50 was above 85.1 µM. For `CCOC(=O)C1N(S(=O)(=O)c2ccc(C)cc2)CCC12c1ccccc1NC2c1ccc(OC)c(OC)c1` (stereo not given), the result was inactive.

Consider `COC(=O)C(C)N(C)C(=O)[C@H](CC(N)=O)N(C)C(=O)[C@@H]1CCCN1C(=O)[C@H](C(C)C)N(C)C(=O)C(C(C)C)N(C)C(=O)[C@@H](NC(=O)OC(C)(C)C)C(C)C` (stereo not given in full) (Boc-V[ξNMeV][NMeV]P[NMeN][ξNMeA]-OMe), for which the EC50 is above 324 µM and the IC50 was above 324 µM. As to `CN(C)c1ccc(/C=N\N2C(=O)c3ccccc3C2=O)cc1`, the EC50 is above 123 µM and the IC50 is above 123 µM. As for `c1ccc2c(c1)[nH]c1c(N3CCOCC3)nnc(N3CCOCC3)c12`, the EC50 was above 200 µM and the IC50 was above 200 µM. Turning to `COC(=O)C1CCC(=O)N1CN(C(C)=O)c1cccc(O)c1` (stereo not given), the EC50 is above 200 µM and the IC50 was above 200 µM. Turning to `CC(C)c1ccc(/C=C2\C=Cc3ccccc32)cc1`, the EC50 is above 40.7 µM and the IC50 is above 40.7 µM. For `C[C@@H](c1ccccc1)n1c(N)c(C#N)c2ccc([N+](=O)[O-])cc2c1=O`, the EC50 was above 200 µM and the IC50 is 12.3 µM. The corresponding values for `CC(=O)Nc1ccc(/C(C#N)=C/c2ccc(N(C)CCC#N)cc2)cc1` are above 200 µM and 19.1 µM.

Turning to `CCC1(CC)COP(=S)(S)OC1`, the EC50 was above 200 µM and the IC50 is above 200 µM.

As for `CCCCCCCCCCCCCCCCN1CCC2SC3CN(CCCCCCCCCCCCCCCC)CCC3SC2C1` (stereo not given), the EC50 is above 100 µM and the IC50 was above 100 µM. As to `Cc1ccc(-c2c(C#N)c(-c3ccc([N+](=O)[O-])cc3)c(C#N)c(=O)n2NS(=O)(=O)c2ccccc2)cc1`, the EC50 was above 200 µM and the IC50 was 16.6 µM. The corresponding values for `O=C(/C=C/c1ccccc1)c1ccc(Sc2ccccc2)cc1` are above 2 µM and 0.107 µM. For `COC(=O)C1=C(C(=O)OC)SC(=C2C(=O)c3ccccc3-c3ccccc32)S1`, the result was inactive. Regarding `c1ccc(C2(c3ccccc3)OCCO2)cc1`, the EC50 was above 200 µM and the IC50 was above 200 µM. Take `CC1(C)COC(c2cccc(C3=NC(C)(C)CO3)c2)=N1`: the EC50 is above 200 µM and the 50% inhibitory concentration (IC50) was above 200 µM. For `O=C(/C=C\c1ccc(O)c(O)c1)O[C@@H]1C[C@](O)(C(=O)O)C[C@@H](O)[C@H]1O`, the EC50 was above 708 µM; the IC50 is 97.7 µM and 355 µM. In the case of `O=C(O)C(CS)Nc1c2ccccc2nc2ccccc12` (stereo not given), the outcome was inactive. For `CCOC(=O)/C(=N\O)C1=CSC2=NNC(C)(C)N12`, the EC50 was above 200 µM and the IC50 amounted to 115 µM. The corresponding values for `CCN(CC)CCn1ncc2ccc3c(c(=O)c4cccnc4n3CCN(CC)CC)c21` are above 20 µM and 0.309 µM. For `CN(C)CCCn1c(-c2cc(C(C)(C)C)c(O)c(C(C)(C)C)c2)csc1=Nc1ccccc1` the same measures were above 200 µM and 3.55 µM. In the case of `CC1=N/C(=C\c2ccccc2C)C(=O)O1`, the EC50 is above 1230 µM and the IC50 was above 1230 µM. Take `c1ccc(N=c2sc3ccccc3sc2=Nc2ccccc2)cc1`: the EC50 was above 200 µM and the IC50 came to 3.09 µM. With `S=C(Nc1ccccc1)Nc1ccccc1SC(/C=C/NNC1=NC(c2ccccc2)C(c2ccccc2)=NN1)c1ccccc1` (stereo not given), the EC50 is above 15.5 µM and the IC50 was above 15.5 µM. Consider `C1SCSCS1`, for which the EC50 is above 200 µM and the IC50 was above 200 µM.

With `C/C=C/C=Nc1c(C#N)c2n(c1C(=O)Nc1ccc(OC)cc1)CCC2`, the EC50 was above 200 µM and the 50% inhibitory concentration (IC50) is above 200 µM. Take `O=C1CSC(c2cccc(Cl)c2)N1c1ccc(-c2ccc(-n3c(-c4ccccc4)nc4ccccc4c3=O)cc2)cc1` (stereo not given): the EC50 is above 200 µM and the IC50 worked out at 21.9 µM. The corresponding values for `CC(C)(C)NNC(=O)/C(=C/c1ccc([N+](=O)[O-])cc1)NC(=O)c1ccccc1` are above 7.08 µM and above 7.08 µM. The corresponding values for `N#Cc1c(N)nc2c(c(-c3ccc(Cl)cc3)nn2-c2ccccc2)c1C#N` are above 200 µM and above 200 µM. With `NC/C(=C\C(=O)O)c1ccc(Cl)cc1`, the outcome was inactive. For the compound `O=c1c(O)c(-c2ccc(O)cc2)oc2cc(O)cc(O)c12`, the EC50 is above 97.7 µM and the IC50 was found to be 51.3 µM. The corresponding values for `O=C(SCc1c(O)c2ccccc2oc1=O)c1ccccc1` are above 200 µM and 67.6 µM.

Turning to `CC(C)(C)C1(O)Cc2ccccc2C(=O)O1` (stereo not given), the EC50 is above 309 µM and the IC50 was above 309 µM. As to `CCCCC(C)C(OC(=O)CC(CC(=O)O)C(=O)O)C(CC(C)CC(O)CCCCC(O)CC(O)C(C)N)OC(=O)CC(CC(=O)O)C(=O)O` (stereo not given), the outcome was inactive. With `O=C1NC(=O)C2(CC2)C(=O)N1`, the EC50 is above 200 µM and the IC50 stood at 13.2 µM.

For the compound `O=S(=O)([O-])c1ccc(C=Nc2ccccc2)c([O-])c1.O=S(=O)([O-])c1ccc(C=Nc2ccccc2)c([O-])c1.[Co+2]`, the EC50 was above 407 µM and the 50% inhibitory concentration (IC50) is 95.5 µM. Regarding `O=C1NC(=O)C(=Cc2ccccc2Br)C(=O)N1`, the EC50 is above 229 µM, the outcome was inactive and the IC50 came to 2.4 µM. As to `CCOC(=O)C(CC[C@@H]1N[C@H](C(N)=O)Cc2c1[nH]c1ccccc21)C(=O)OCC`, the EC50 was above 89.1 µM and the IC50 was above 89.1 µM. Take `Cc1noc2c1CSC1=C2S(=O)(=O)N(C)c2ccccc21`: the EC50 is above 58.9 µM and the IC50 was above 58.9 µM.
